Patent US9040545B2, “Heterocyclyl pyrazolopyrimidine analogues as selective JAK inhibitors” (Cellzome Limited, priority 2010, dated 2015)

Molecular target: T1, JAK3 (Homo sapiens, UniProt P52333)
T1 construct: endogenous in cells; host or cells: mixed Molt4/Ramos lysate (1:2)
T1 sequence (P52333 1-1124): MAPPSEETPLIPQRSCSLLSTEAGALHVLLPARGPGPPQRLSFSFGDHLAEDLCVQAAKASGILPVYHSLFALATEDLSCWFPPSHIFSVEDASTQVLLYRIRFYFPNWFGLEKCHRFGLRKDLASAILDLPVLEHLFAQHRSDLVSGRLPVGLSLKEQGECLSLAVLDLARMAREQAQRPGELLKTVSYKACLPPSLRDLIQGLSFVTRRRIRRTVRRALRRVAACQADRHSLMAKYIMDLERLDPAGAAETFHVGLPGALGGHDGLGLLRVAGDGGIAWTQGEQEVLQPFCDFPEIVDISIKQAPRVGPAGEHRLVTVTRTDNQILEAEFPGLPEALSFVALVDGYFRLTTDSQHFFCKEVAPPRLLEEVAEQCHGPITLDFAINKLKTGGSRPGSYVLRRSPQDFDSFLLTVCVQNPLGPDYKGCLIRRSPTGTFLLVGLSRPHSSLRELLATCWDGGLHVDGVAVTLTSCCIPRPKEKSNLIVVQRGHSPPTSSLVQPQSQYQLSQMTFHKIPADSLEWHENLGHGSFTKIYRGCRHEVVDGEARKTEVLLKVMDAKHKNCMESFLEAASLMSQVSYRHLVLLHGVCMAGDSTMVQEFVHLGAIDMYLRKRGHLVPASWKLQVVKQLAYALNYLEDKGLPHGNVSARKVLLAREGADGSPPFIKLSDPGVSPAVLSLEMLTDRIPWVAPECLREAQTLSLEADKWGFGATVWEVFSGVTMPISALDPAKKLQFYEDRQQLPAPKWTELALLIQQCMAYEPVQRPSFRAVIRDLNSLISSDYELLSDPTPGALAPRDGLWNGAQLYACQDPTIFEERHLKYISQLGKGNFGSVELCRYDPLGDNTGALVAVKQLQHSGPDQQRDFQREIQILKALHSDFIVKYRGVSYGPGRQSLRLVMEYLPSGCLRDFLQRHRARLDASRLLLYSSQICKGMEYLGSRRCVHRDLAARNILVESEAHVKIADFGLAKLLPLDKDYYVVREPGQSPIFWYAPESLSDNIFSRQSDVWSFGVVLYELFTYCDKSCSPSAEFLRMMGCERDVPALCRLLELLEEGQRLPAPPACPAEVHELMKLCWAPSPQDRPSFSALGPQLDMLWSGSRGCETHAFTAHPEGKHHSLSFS
Assay: Kinobeads assay, JAK3
Format: binding
Conditions: mixed Molt4/Ramos lysate, read-out: Inhibition values (IC50) JAK3
Protocol: The compounds of the present invention as described in the previous examples were tested in a Kinobeads™ assay as described for ZAP-70 (WO-A 2007/137867). Briefly, test compounds (at various concentrations) and the affinity matrix with the immobilized aminopyrido-pyrimidine ligand 24 were added to cell lysate aliquots and allowed to bind to the proteins in the lysate sample. After the incubation time the beads with captured proteins were separated from the lysate. Bound proteins were then eluted and the presence of JAK2 and JAK3 was detected and quantified using specific antibodies in a dot blot procedure and the Odyssey infrared detection system. Dose response curves for individual kinases were generated and IC50 values calculated. Kinobeads™ assays for ZAP-70 (WO-A 2007/137867) and for kinase selectivity profiling (WO-A 2006/134056) have been previously described.
The affinity matrix was washed two times with 15 mL of 1×DP buffer containing 0.2% NP40 (IGEPAL® CA-630, Sigma, #I3021) and then resuspended in 1×DP buffer containing 0.2% NP40 (3% beads slurry).
5×DP buffer 250 mM Tris-HCl pH 7.4, 25% Glycerol, 7.5 mM MgCl2, 750 mM NaCl, 5 mM Na3VO4; filter the 5×DP buffer through a 0.22 μm filter and store in aliquots at −80° C. The 5×DP buffer is diluted with H2O to 1×DP buffer containing 1 mM DTT and 25 mM NaF.
Stock solutions of test compounds were prepared in DMSO. In a 96 well plate 30 μL solution of diluted test compounds at 5 mM in DMSO were prepared. Starting with this solution a 1:3 dilution series (9 steps) was prepared. For control experiments (no test compound) a buffer containing 2% DMSO was used.
Molt4 cells (ATCC catalogue number CRL-1582) and Ramos cells (ATCC catalogue number CRL-1596) were grown in 1 L Spinner flasks (Integra Biosciences, #182101) in suspension in RPMI 1640 medium (Invitrogen, #21875-034) supplemented with 10% Fetal Bovine Serum (Invitrogen) at a density between 0.15×106 and 1.2×10^6 cells/mL. Cells were harvested by centrifugation, washed once with 1×PBS buffer (Invitrogen, #14190-094) and cell pellets were frozen in liquid nitrogen and subsequently stored at −80° C. Cells were homogenized in a Potter S homogenizer in lysis buffer: 50 mM Tris-HCl, 0.8% NP40, 5% glycerol, 150 mM NaCl, 1.5 mM MgCl2, 25 mM NaF, 1 mM sodium vanadate, 1 mM DTT, pH 7.5. One complete EDTA-free tablet (protease inhibitor cocktail, Roche Diagnostics, 1873580) per 25 mL buffer was added. The material was dounced 10 times using a mechanized POTTER S, transferred to 50 mL falcon tubes, incubated for 30 minutes on ice and spun down for 10 minutes at 20,000 g at 4° C. (10,000 rpm in Sorvall SLA600, precooled). The supernatant was transferred to an ultracentrifuge (UZ)-polycarbonate tube (Beckmann, 355654) and spun for 1 hour at 100,000 g at 4° C. (33.500 rpm in Ti50.2, precooled). The supernatant was transferred again to a fresh 50 mL falcon tube, the protein concentration was determined by a Bradford assay (BioRad) and samples containing 50 mg of protein per aliquot were prepared. The samples were immediately used for experiments or frozen in liquid nitrogen and stored frozen at −80° C.
Cell lysate (approximately 50 mg protein per plate) was thawed in a water bath at room temperature and then stored on ice. To the thawed cell lysate 1×DP 0.8% NP40 buffer containing protease inhibitors (1 tablet for 25 mL buffer; EDTA-free protease inhibitor cocktail; Roche Diagnostics 1873580) was added in order to reach a final protein concentration of 10 mg/mL total protein. The diluted cell lysate was stored on ice. Mixed Molt4/Ramos lysate was prepared by combining one volume of Molt4 lysate and two volumes of Ramos lysate (ratio 1:2).
To a 96 well filter plate (Multiscreen HTS, BV Filter Plates, Millipore #MSBVN1250) were added per well: 100 μL affinity matrix (3% beads slurry), 3 μL of compound solution, and 50 μL of diluted lysate. […]

| Compound | IC50 [nM] |
| --- | --- |
| Cn1cc(Nc2ncc3cnn(Cc4cccc(N5CCOCC5=O)c4)c3n2)cn1 [Example 27, 4-(3-((6-((1-Methyl-1H-pyrazol-4-yl)amino)-1H-pyrazolo[3,4-d]pyrimidin-1-yl)methyl)phenyl)morpholin-3-one] | < 100 |
| O=C(CCn1cc(Nc2ncc3cnn(Cc4cccc(N5CCOCC5)c4)c3n2)cn1)N1CCCCC1 [Example 20, 3-(4-((1-(3-Morpholinobenzyl)-1H-pyrazolo[3,4-d]pyrimidin-6-yl)amino)-1H-pyrazol-1-yl)-1-(piperidin-1-yl)propan-1-one] | < 100 |
| Cn1cc(Nc2ncc3cnn(Cc4cccc(NC5COC5)c4)c3n2)cn1 [Example 114, N-(1-methyl-1H-pyrazol-4-yl)-1-(3-(oxetan-3-ylamino)benzyl)-1H-pyrazolo[3,4-d]pyrimidin-6-amine] | < 100 |
| Cn1cc(Nc2ncc3cnn(Cc4cccc(N5CCOCC5)c4)c3n2)cn1 [Example 2, N-(1-Methyl-1H-pyrazol-4-yl)-1-(3-morpholinobenzyl)-1H-pyrazolo[3,4-d]pyrimidin-6-amine] | < 100 |
| Cn1cc(Nc2ncc3cnn(Cc4cccc(N5CC6(COC6)C5)c4)c3n2)cn1 [Example 89, 1-(3-(2-oxa-6-azaspiro[3.3]heptan-6-yl)benzyl)-N-(1-methyl-1H-pyrazol-4-yl)-1H-pyrazolo[3,4-d]pyrimidin-6-amine] | < 100 |
| Cc1c(Cn2ncc3cnc(Nc4cnn(C)c4)nc32)cccc1N1CCOCC1 [Example 11, N-(1-Methyl-1H-pyrazol-4-yl)-1-(2-methyl-3-morpholinobenzyl)-1H-pyrazolo[3,4-d]pyrimidin-6-amine] | < 100 |
| Cn1cc(Nc2ncc3cnn(Cc4cccc(-c5cnn(CC(N)=O)c5)c4)c3n2)cn1 [Example 120, 2-(4-(3-((6-((1-methyl-1H-pyrazol-4-yl)amino)-1H-pyrazolo[3,4-d]pyrimidin-1-yl)methyl)phenyl)-1H-pyrazol-1-yl)acetamide] | < 100 |
| O=C1COCCN1c1cccc(Cn2ncc3cnc(Nc4cnn(CCO)c4)nc32)c1 [Example 29, 4-(3-((6-((1-(2-Hydroxyethyl)-1H-pyrazol-4-yl)amino)-1H-pyrazolo[3,4-d]pyrimidin-1-yl)methyl)phenyl)morpholin-3-one] | < 100 |
| CN(C)CCCn1cc(Nc2ncc3cnn(Cc4cccc(N5CCOCC5)c4)c3n2)cn1 [Example 4, N-(1-(3-(Dimethylamino)propyl)-1H-pyrazol-4-yl)-1-(3-morpholinobenzyl)-1H-pyrazolo[3,4-d]pyrimidin-6-amine] | < 100 |
| Cn1cc(Nc2ncc3cnn(Cc4cccc(N5CCNCC5)c4)c3n2)cn1 [Example 22, N-(1-Methyl-1H-pyrazol-4-yl)-1-(3-(piperazin-1-yl)benzyl)-1H-pyrazolo[3,4-d]pyrimidin-6-amine] | < 100 |
| Cn1cc(Nc2ncc3cnn(Cc4cccc(N5CCN(S(C)(=O)=O)CC5)c4)c3n2)cn1 [Example 100, N-(1-methyl-1H-pyrazol-4-yl)-1-(3-(4-(methylsulfonyl)piperazin-1-yl)benzyl)-1H-pyrazolo[3,4-d]pyrimidin-6-amine] | < 100 |
| OCCn1cc(Nc2ncc3cnn(Cc4cc(F)cc(N5CCNCC5)c4)c3n2)cn1 [Example 93, 2-(4-((1-(3-fluoro-5-(piperazin-1-yl)benzyl)-1H-pyrazolo[3,4-d]pyrimidin-6-yl)amino)-1H-pyrazol-1-yl)ethanol] | < 100 |

Continued, values first:

| IC50 [nM] | Compound |
| --- | --- |
| < 100 | C[C@@H]1COCCN1c1cccc(Cn2ncc3cnc(Nc4cnn(C)c4)nc32)n1 [Example 1, (R)—N-(1-Methyl-1H-pyrazol-4-yl)-1-((6-(3-methylmorpholino)pyridin-2-yl)methyl)-1H-pyrazolo[3,4-d]pyrimidin-6-amine] |
| < 100 | CN(C)CC(F)Cn1cc(Nc2ncc3cnn(Cc4cc(F)cc(N5CCOCC5=O)c4)c3n2)cn1 (centres unmarked) [Example 97, 4-(3-((6-((1-(3-(dimethylamino)-2-fluoropropyl)-1H-pyrazol-4-yl)amino)-1H-pyrazolo[3,4-d]pyrimidin-1-yl)methyl)-5-fluorophenyl)morpholin-3-one] |
| < 100 | Cn1cc(Nc2ncc3cnn(Cc4cccc(N5CCNCC5=O)c4)c3n2)cn1 [Example 36, 1-(3-((6-((1-Methyl-1H-pyrazol-4-yl)amino)-1H-pyrazolo[3,4-d]pyrimidin-1-yl)methyl)phenyl)piperazin-2-one] |
| < 100 | Cn1cc(Nc2ncc3cnn(Cc4cccc(N5CCOCC5)c4F)c3n2)cn1 [Example 21, 1-(2-Fluoro-3-morpholinobenzyl)-N-(1-methyl-1H-pyrazol-4-yl)-1H-pyrazolo[3,4-d]pyrimidin-6-amine] |
| < 100 | Cn1cc(Nc2ncc3cnn(Cc4cccc(C(=O)N5CCOCC5)c4)c3n2)cn1 [Example 6, (3-((6-((1-Methyl-1H-pyrazol-4-yl)amino)-1H-pyrazolo[3,4-d]pyrimidin-1-yl)methyl)phenyl)(morpholino)methanone] |
| < 100 | Cn1cc(Nc2ncc3cnn(Cc4cccc(C5CCOCC5)c4)c3n2)cn1 [Example 9, N-(1-Methyl-1H-pyrazol-4-yl)-1-(3-(tetrahydro-2H-pyran-4-yl)benzyl)-1H-pyrazolo[3,4-d]pyrimidin-6-amine] |
| < 100 | CN1CCN(c2cccc(Cn3ncc4cnc(Nc5cnn(C)c5)nc43)c2)CC1 [Example 10, N-(1-Methyl-1H-pyrazol-4-yl)-1-(3-(4-methylpiperazin-1-yl)benzyl)-1H-pyrazolo[3,4-d]pyrimidin-6-amine] |
| < 100 | O=C1COCCN1c1cc(F)cc(Cn2ncc3cnc(Nc4cnn(CC5CCNC5)c4)nc32)c1 (centres unmarked) [Example 101, 4-(3-fluoro-5-((6-((1-(pyrrolidin-3-ylmethyl)-1H-pyrazol-4-yl)amino)-1H-pyrazolo[3,4-d]pyrimidin-1-yl)methyl)phenyl)morpholin-3-one] |
